Data taken from patent US8846704B2, “Thiopyrimidine-based compounds and uses thereof” (YM Biosciences Austraila Pty Ltd, priority 2007, dated 2014).

Target: T1, BaF3 TELJAK3 cells (Homo sapiens, UniProt P52333)
T1 construct: fused on or other part: TEL (ETV6) N-terminal part, coding nucleotides 1-487, serves as the oligomerising partner; It is fused through a Sal I site to the JAK3 kinase domain and expressed from pTRE2 in BaF3 cells bearing pTET-off; P41212 (Transcription factor ETV6)
T1 sequence (P52333 1-1124): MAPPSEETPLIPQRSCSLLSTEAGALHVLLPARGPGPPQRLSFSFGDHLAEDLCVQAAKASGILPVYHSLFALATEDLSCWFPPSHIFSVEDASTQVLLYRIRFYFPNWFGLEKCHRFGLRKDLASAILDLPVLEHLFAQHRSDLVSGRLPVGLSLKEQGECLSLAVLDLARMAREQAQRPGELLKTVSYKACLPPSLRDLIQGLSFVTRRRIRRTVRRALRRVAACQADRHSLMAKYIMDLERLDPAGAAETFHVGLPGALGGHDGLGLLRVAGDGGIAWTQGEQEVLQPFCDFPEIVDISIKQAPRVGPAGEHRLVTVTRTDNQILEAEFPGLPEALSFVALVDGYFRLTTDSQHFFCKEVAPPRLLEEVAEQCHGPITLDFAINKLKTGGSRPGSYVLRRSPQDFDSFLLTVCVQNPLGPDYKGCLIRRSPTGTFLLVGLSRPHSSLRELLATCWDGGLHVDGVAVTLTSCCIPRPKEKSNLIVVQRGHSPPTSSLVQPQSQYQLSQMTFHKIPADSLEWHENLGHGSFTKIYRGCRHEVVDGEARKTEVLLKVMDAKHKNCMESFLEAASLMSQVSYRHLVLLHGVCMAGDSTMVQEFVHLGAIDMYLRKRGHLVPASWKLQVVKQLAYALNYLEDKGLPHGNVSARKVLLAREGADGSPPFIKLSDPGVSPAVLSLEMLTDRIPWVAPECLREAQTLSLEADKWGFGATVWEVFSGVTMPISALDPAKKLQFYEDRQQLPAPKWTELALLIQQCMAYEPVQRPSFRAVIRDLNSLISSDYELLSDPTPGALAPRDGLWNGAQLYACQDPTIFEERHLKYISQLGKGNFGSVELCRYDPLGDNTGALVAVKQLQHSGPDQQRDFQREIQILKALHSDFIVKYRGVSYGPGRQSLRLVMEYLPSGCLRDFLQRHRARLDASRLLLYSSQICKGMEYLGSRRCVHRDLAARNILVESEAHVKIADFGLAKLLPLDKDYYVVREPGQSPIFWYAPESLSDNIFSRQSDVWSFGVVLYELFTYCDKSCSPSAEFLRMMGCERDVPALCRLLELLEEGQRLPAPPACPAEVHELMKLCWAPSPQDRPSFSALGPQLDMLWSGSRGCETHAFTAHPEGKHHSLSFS
Assay: Cellular screening, BaF3 TEL:JAK3 cells, Alamar Blue
Type: cell-based
Conditions: 40 hr, read-out: BafT_J3 IC50_nM
Procedure, shortened: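 Alamar Blue signal at 544 nm, developed for 4–6 h, measured viability after 40 h of compound treatment at 37 °C, 5% CO2. Cells were growth-factor-independent BaF3 lines transfected with a TEL/JAK3 kinase-domain fusion under tet-off control. They were cultured in DMEM, 10% Tet-approved FBS, lacking WEHI 3B conditioned medium.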

SMILES	GI50
CC#CC(=O)Nc1ccc(Sc2ccnc(Nc3ccc(N4CCOCC4)cc3)n2)cc1 [Compound 104, N-(4-(2-(4-morpholinophenylao)pyrimidin-4-ylthio)phenyl)but-2-ynamide]	< 5 µM
Cc1cnc(Nc2ccc(N3CCOCC3)cc2)nc1Sc1ccc(C#N)cc1 [Compound 136, 4-(5-methyl-2-(4-morpholinophenylao)pyrimidin-4-ylthio)benzonitrile]	> 20 µM
c1cn(Cc2ccc(Sc3ccnc(Nc4ccc(N5CCOCC5)cc4)n3)cc2)cn1 [Compound 127, 4-(4-((1H-imidazol-1-yl)methyl)phenylthio)-N-(4-morpholinophenyl)pyrimidin-2-ae]	< 20 µM
C=CC(=O)Nc1ccc(Sc2nc(Nc3ccc(O)cc3)ncc2C)cc1 [Compound 282, N-(4-(2-(4-hydroxyphenylao)-5-methylpyrimidin-4-ylthio)phenyl)acrylamide]	< 1 µM
Cc1cnc(Nc2ccc(N3CCOCC3)cc2)nc1Sc1ccc(NC(=O)COCC(=O)O)cc1 [Compound 188, 2-(2-(4-(5-methyl-2-(4-morpholinophenylao)pyrimidin-4-ylthio)phenylao)-2-oxoethoxy)acetic acid]	> 20 µM
O=C(CCl)Nc1cccc(Sc2ccnc(Nc3ccc(N4CCOCC4)cc3)n2)c1 [Compound 332, 2-chloro-N-(3-(2-(4-morpholinophenylao)pyrimidin-4-ylthio)phenyl)acetamide]	< 1 µM
COC(=O)COCC(=O)Nc1ccc(Sc2nc(Nc3ccc(N4CCOCC4)cc3)ncc2C)cc1 [Compound 189, methyl 2-(2-(4-(5-methyl-2-(4-morpholinophenylao)pyrimidin-4-ylthio)phenylao)-2-oxoethoxy)acetate]	< 20 µM
C=CC(=O)Nc1ccc(Sc2ccnc(Nc3ccc(S(=O)(=O)N4CCOCC4)cc3)n2)cc1 [Compound 367, N-(4-(2-(4-(morpholinosulfonyl)phenylao)pyrimidin-4-ylthio)phenyl)acrylamide]	< 5 µM
Nc1ccc(Sc2nc(Nc3ccc(N4CCOCC4)cc3)ncc2I)cc1 [Compound 309, 4-(4-aophenylthio)-5-iodo-N-(4-morpholinophenyl)pyrimidin-2-ae]	< 5 µM
C=CC(=O)Nc1cc(C)c(Sc2nc(Nc3ccc(N4CCOCC4)cc3)ncc2C)c(C)c1 [Compound 164, N-(3,5-dimethyl-4-(5-methyl-2-(4-morpholinophenylao)pyrimidin-4-ylthio)phenyl)acrylamide]	< 1 µM
C=CC(=O)Nc1ccc(Sc2ccnc(Nc3cccc(S(N)(=O)=O)c3)n2)cc1 [Compound 364, N-(4-(2-(3-sulfamoylphenylao)pyrimidin-4-ylthio)phenyl)acrylamide]	< 1 µM
CC(=O)Nc1ccc(Sc2nc(Nc3ccc(N4CCOCC4)cc3)ncc2C)cc1 [Compound 135, N-(4-(5-methyl-2-(4-morpholinophenylao)pyrimidin-4-ylthio)phenyl)acetamide]	> 20 µM
C=CC(=O)Nc1ccc(Sc2ccnc(Nc3cccc(Cl)c3)n2)cc1 [Compound 348, N-(4-(2-(3-chlorophenylao)pyrimidin-4-ylthio)phenyl)acrylamide]	< 5 µM
C=CC(=O)Nc1ccc(Sc2ccnc(Nc3ccc(OC)cc3)n2)cc1 [Compound 74, N-(4-(2-(4-methoxyphenylao)pyrimidin-4-ylthio)phenyl)acrylamide]	< 1 µM
